Calls of active or inactive are those of the source. No cut-off for these calls is given here.
How the values were obtained:
PC-12 [1] = experiment: Cell cycle arrest in rat PC12 cells assessed as accumulation at S phase at 5 uM after 24 hrs by propidium iodide/RNase A staining-based flow cytometric analysis (reference value: 30.30%); format: functional
PC-12 [2] = experiment: Induction of apoptosis in rat PC12 cells assessed as decrease in Bcl-xL level up to 5 uM after 72 hrs by Western blot analysis; format: functional, cell-based
PC-12 [3] = experiment: Cell cycle arrest in rat PC12 cells assessed as accumulation at S phase at 1 uM after 24 hrs by propidium iodide/RNase A staining-based flow cytometric analysis (reference value: 30.30%); format: functional
PC-12 [4] = experiment: Cell cycle arrest in rat PC12 cells assessed as accumulation at G1 phase at 3 uM after 24 hrs by propidium iodide/RNase A staining-based flow cytometric analysis (reference value: 58.07%); format: functional
HCT-116 = experiment: Antiproliferative activity against human HCT116 cells after 72 hrs by CCK-8 assay; format: functional, cell-based; conditions: HCT-116, 72 h
PC-12 [5] = experiment: Cell cycle arrest in rat PC12 cells assessed as accumulation at S phase at 3 uM after 24 hrs by propidium iodide/RNase A staining-based flow cytometric analysis (reference value: 30.30%); format: functional
[6] = Stability of the compound in air at 60 degC after 24 hrs; format: physicochemical
PC-12 [7] = experiment: Cell cycle arrest in rat PC12 cells assessed as accumulation at G2 phase at 5 uM after 24 hrs by propidium iodide/RNase A staining-based flow cytometric analysis (reference value: 11.63%); format: functional
PC-12 [8] = experiment: Induction of apoptosis in rat PC12 cells assessed as increase in cleaved caspase3 expression level after 72 hrs by Western blot analysis; format: functional, cell-based
A549 = experiment: Antiproliferative activity against human A549 cells after 72 hrs by CCK-8 assay; format: functional, cell-based; conditions: A549, 72 h
PC-12 [9] = experiment: Cell cycle arrest in rat PC12 cells assessed as accumulation at G2 phase at 1 uM after 24 hrs by propidium iodide/RNase A staining-based flow cytometric analysis (reference value: 11.63%); format: functional
PC-12 [10] = experiment: Induction of apoptosis in rat PC12 cells assessed as nuclear fragmentation up to 3.13 uM after 24 hrs by Hoechst 33258 staining-based fluorescence microscopic method; format: functional, cell-based
PC-12 [11] = experiment: Induction of apoptosis in rat PC12 cells assessed as increase in cleaved caspase9 expression level after 72 hrs by Western blot analysis; format: functional, cell-based
PC-12 [12] = experiment: Cell cycle arrest in rat PC12 cells assessed as accumulation at G1 phase after 24 hrs by propidium iodide/RNase A staining-based flow cytometric analysis; format: functional
L02 = experiment: Antiproliferative activity against human L02 cells after 72 hrs by CCK-8 assay; format: cell-based; conditions: L02, 72 h
SH-SY5Y = experiment: Antiproliferative activity against human SH-SY5Y cells after 72 hrs by CCK-8 assay; format: functional, cell-based
[13] = Half life in human liver microsomes at 1.11 uM preincubated for 10 mins followed by NADPH addition by LC-MS/MS analysis; format: ADME, microsome
[14] = Clearance in human liver microsomes at 1.11 uM preincubated for 10 mins followed by NADPH addition by LC-MS/MS analysis; format: ADME, microsome; conditions: read-out: CLH
PC-12 [15] = experiment: Induction of apoptosis in rat PC12 cells assessed as increase in Bax protein expression up to 5 uM after 72 hrs by Western blot analysis; format: functional, cell-based
PC-12 [16] = experiment: Induction of apoptosis in rat PC12 cells assessed as increase in Bad protein expression up to 5 uM after 72 hrs by Western blot analysis; format: functional, cell-based
PC-12 [17] = experiment: Cell cycle arrest in rat PC12 cells assessed as accumulation at G1 phase at 5 uM after 24 hrs by propidium iodide/RNase A staining-based flow cytometric analysis (reference value: 58.07%); format: functional
PC-12 [18] = experiment: Induction of apoptosis in rat PC12 cells assessed as nuclear condensation up to 3.13 uM after 24 hrs by Hoechst 33258 staining-based fluorescence microscopic method; format: functional, cell-based
A-375 = experiment: Antiproliferative activity against human A375 cells after 72 hrs by CCK-8 assay; format: functional, cell-based; conditions: A-375, 72 h
PC-12 [19] = experiment: Cell cycle arrest in rat PC12 cells assessed as accumulation at G2 phase at 3 uM after 24 hrs by propidium iodide/RNase A staining-based flow cytometric analysis (reference value: 11.63%); format: functional
PC-12 [20] = experiment: Induction of apoptosis in rat PC12 cells assessed as apoptotic cells up to 3.13 uM after 24 hrs by Annexin V-FITC/propidium iodide staining-based flow cytometric analysis (reference value: 6.56%); format: functional
PC-12 [21] = experiment: Antiproliferative activity against rat PC12 cells after 72 hrs by CCK-8 assay; format: functional, cell-based; conditions: PC-12, 72 h
PC-12 [22] = experiment: Cell cycle arrest in rat PC12 cells assessed as accumulation at G1 phase at 1 uM after 24 hrs by propidium iodide/RNase A staining-based flow cytometric analysis (reference value: 58.07%); format: functional

| Compound | IC50 (HCT-116) [µM] | Stability [6] | IC50 (A549) [µM] | IC50 (L02) [µM] | IC50 (SH-SY5Y) [µM] | half-life at 1.11 µM [13] [min] | microsomal CLint at 1.11 µM [14] [µL/min/mg] | IC50 (A-375) [µM] | IC50 (PC-12 [21]) [µM] | further results |
| --- | --- | --- | --- | --- | --- | --- | --- | --- | --- | --- |
| C[C@@H]1CC[C@@H]2[C@]34OO[C@](C)(CC[C@@H]13)O[C@H]4O[C@]2(C)COP(=O)(OC[C@@]1(C)O[C@@H]2O[C@@]3(C)CC[C@H]4[C@H](C)CC[C@@H]1[C@@]24OO3)Oc1ccccc1 | 6.61 | Stable | 6.37 | 10.3 | 3.48 | 18.3 | 54 | 5.96 | 1.56 | Activity (PC-12 [1]): 10.33%; Activity (PC-12 [2]): Active; Activity (PC-12 [3]): 14.7%; Activity (PC-12 [4]): 79.4%; Activity (PC-12 [5]): 13.79%; Activity (PC-12 [7]): 3.61%; Activity (PC-12 [8]): Dose-dependent effect; Activity (PC-12 [9]): 8.77%; Activity (PC-12 [10]): Active; Activity (PC-12 [11]): Dose-dependent effect; Activity (PC-12 [12]): Dose-dependent effect; Activity (PC-12 [15]): Active; Activity (PC-12 [16]): Active; Activity (PC-12 [17]): 86.06%; Activity (PC-12 [18]): Active; Activity (PC-12 [19]): 6.81%; Activity (PC-12 [20]): 6.56 - 31.04%; Activity (PC-12 [22]): 76.54% |
| C[C@@H]1CC[C@H]2[C@@H](O)[C@H](OC(=O)CCC(=O)O[C@@H]3O[C@@H]4O[C@@]5(C)CC[C@H]6[C@H](C)CC[C@@H]([C@H]3O)[C@@]46OO5)O[C@@H]3O[C@@]4(C)CC[C@@H]1[C@]32OO4 | 36.3 | Stable | 45.7 | > 50 | > 50 | 8 | 124 | 33.5 | > 50 |  |

Reference: ChEMBL document CHEMBL4229365, “Synthesis of novel ring-contracted artemisinin dimers with potent anticancer activities” (Eur J Med Chem, 2018)
